Assay results from US10669258B2, “3-sulfonyl-5-aminopyridine-2,4-diol APJ agonists” (BRISTOL-MYERS SQUIBB COMPANY, priority 2016, dated 2020).

target: T1, human APJ receptor (Homo sapiens, UniProt P35414); assay: Intracellular cAMP accumulation assay (APJ hcAMP, HTRF); type: cell-based; details: HEK293 cells stably expressing human APJ receptor; inhibition of forskolin-mediated cAMP production; Table 1; read-out: hAPJ cAMP EC50 Potency range
T1 construct: expressed in transfected cells; host or cells: HEK293
T1 sequence (P35414 1-380): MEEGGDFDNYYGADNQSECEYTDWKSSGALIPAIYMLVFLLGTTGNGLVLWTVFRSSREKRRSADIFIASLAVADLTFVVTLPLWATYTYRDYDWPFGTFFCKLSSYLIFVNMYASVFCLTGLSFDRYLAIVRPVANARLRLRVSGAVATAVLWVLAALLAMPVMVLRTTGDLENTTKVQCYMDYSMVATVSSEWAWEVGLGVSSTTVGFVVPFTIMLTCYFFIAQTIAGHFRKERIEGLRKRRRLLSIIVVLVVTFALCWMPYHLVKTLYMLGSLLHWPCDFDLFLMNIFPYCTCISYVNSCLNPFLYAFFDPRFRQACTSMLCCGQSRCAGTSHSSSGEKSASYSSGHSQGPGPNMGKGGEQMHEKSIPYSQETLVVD
Experimental: Intracellular cAMP Accumulation Assay
HEK293 cells stably expressing human APJ receptor were used to assess the activity of compounds. Cultured cells were detached and resuspended in the cAMP Homogeneous Time-Resolved Fluorescence (HTRF) assay buffer (Cisbio cat; #62AM4PEJ). The assay was performed in 384-well assay plates (Perkin-Elmer; cat #6008289) according to assay protocol provided by the manufacturer. Serial dilutions of a compound together with assay buffer containing […] IBMX and 2 μM forskolin were added to each well containing 5,000 cells and incubated for 30 minutes at room temperature. Subsequently, cAMP D2 reagent was added in the lysis buffer followed by the EuK antibody (Cisbio; cat #62AM4PEJ) and incubated for 60 min. The fluorescence emission ratio was measured using fluorometer. The intracellular cAMP concentrations (compound-stimulated inhibition of forskolin-mediated cAMP production) were calculated by extrapolation from a standard curve using known cAMP concentrations. The EC50 values were obtained by fitting the data to a sigmoidal concentration-response curve with variable slope. The maximal achievable inhibition of forskolin-induced cAMP levels (Ymax) for each compound was expressed as relative percentage of inhibition attained using pyroglutamated apelin-13 ((Pyr1)apelin-13) peptide, which was set to 100%.
The examples disclosed below were tested in the APJ in vitro assays described above and were found having human APJ cyclic AMP (hcAMP) activity. The EC50 value of each compound is presented at the end of the example description.
The biological activity of the exemplified compounds of this invention determined by the assay described above is shown at the end of each example.

Row | Compound | EC50 [nM]
1 | CCCCc1nc(O)c(S(=O)(=O)c2ccc(-c3ccncc3C)cc2)c(O)c1N(C)c1cccc(C)c1 [Example 090, 6-butyl-5-(methyl(m-tolyl)amino)-3-((4-(3-methylpyridin-4-yl)phenyl)sulfonyl)pyridine-2,4-diol] | 0.01 to 10
2 | CCCCc1nc(O)c(S(=O)(=O)c2ccc(-c3ccccc3C(N)=O)cc2)c(O)c1N1CCCc2ccccc21 [Example 057, 4′-((6-butyl-5-(3,4-dihydroquinolin-1(2H)-yl)-2,4-dihydroxypyridin-3-yl)sulfonyl)-[1,1′-biphenyl]-2-carboxamide] | 0.01 to 10
3 | CCCCc1nc(O)c(S(=O)(=O)c2ccc(-c3ccccc3COC)cc2)c(O)c1N(CC)c1ccccc1 [Example 087, 6-butyl-5-(ethyl(phenyl)amino)-3-((2′-(methoxymethyl)-[1,1′-biphenyl]-4-yl)sulfonyl)pyridine-2,4-diol] | 0.01 to 10
4 | CCCCc1nc(O)c(S(=O)(=O)c2ccc(-c3cccnc3C)cc2)c(O)c1N1CCCc2ccccc21 [Example 024, 6-butyl-5-(3,4-dihydroquinolin-1(2H)-yl)-3-((4-(2-methylpyridin-3-yl)phenyl)sulfonyl)pyridine-2,4-diol] | 0.01 to 10
5 | CCCCc1nc(O)c(S(=O)(=O)c2ccc(-c3ccc(F)nc3C)cc2)c(O)c1N(C)c1cccc(C#N)c1 [Example 117, 3-((2-butyl-5-((4-(6-fluoro-2-methylpyridin-3-yl)phenyl)sulfonyl)-4,6-dihydroxypyridin-3-yl)(methyl)amino)benzonitrile] | 0.01 to 10

Other lines, results leading:

Row | EC50 [nM] | Compound
6 | 0.01 to 10 | CCN(c1ccccc1)c1c(-c2cccc(C)c2)nc(O)c(S(=O)(=O)c2ccc(-c3ccccc3C(=O)NC)cc2)c1O [Example 145, 4′-((5-(ethyl(phenyl)amino)-2,4-dihydroxy-6-(m-tolyl)pyridin-3-yl)sulfonyl)-N-methyl-[1,1′-biphenyl]-2-carboxamide]
7 | 0.01 to 10 | Cc1ncccc1-c1ccc(S(=O)(=O)c2c(O)nc(-c3ccn(C)n3)c(N(c3ccccc3)C(C)C)c2O)cc1 [Example 165, 5-(iso-propyl(phenyl)amino)-6-(1-methyl-1H-pyrazol-3-yl)-3-((4-(2-methylpyridin-3-yl)phenyl)sulfonyl)pyri-dine-2,4-diol]
8 | 0.01 to 10 | CCCCc1nc(O)c(S(=O)(=O)c2ccc(-c3ccccc3C(=O)N(C)C)cc2)c(O)c1N(C)c1cccc(C#N)c1 [Example 139, 4′-((6-butyl-5-((3-cyanophenyl)(methyl)amino)-2,4-dihydroxypyridin-3-yl)sulfonyl)-N,N-dimethyl-[1,1′-biphenyl]-2-carboxamide]
9 | 0.01 to 10 | CCN(c1ccccc1)c1c(-c2cnn(C)c2)nc(O)c(S(=O)(=O)c2ccc(-c3ccncc3C)cc2)c1O [Example 156, 5-(ethyl(phenyl)amino)-6-(1-methyl-1H-pyraozl-4-yl)-3-((4-(3-methylpyridin-4-yl)phenyl)sulfonyl)pyri-dine-2,4-diol]
10 | 0.01 to 10 | CNC(=O)c1cccc(-c2ccc(S(=O)(=O)c3c(O)nc(-c4ccn(C)n4)c(N(c4ccccc4)C(C)C)c3O)cc2)c1 [Example 163, 4′-((2,4-dihydroxy-5-(isopropyl(phen-yl)amino)-6-(1-methyl-1H-pyrazol-3-yl)pyridin-3-yl)sulfonyl)-N-methyl-[1,1′-biphenyl]-3-carboxamide]

same assay, conditions: HEK293 cells stably expressing human APJ receptor; inhibition of forskolin-mediated cAMP production; Table 2; read-out: hAPJ cAMP EC50 Potency range

Row | EC50 [nM] | Compound
11 | 0.01 to 10 | CCN(c1ccccc1)c1c(-c2ccn(C)n2)nc(O)c(C(=O)N2CCC(c3ncc(Cl)cc3F)C2)c1O (stereo not drawn) [Example 204, (3-(5-chloro-3-fluoropyridin-2-yl)pyrrolidin-1-yl)(5-(ethyl(phenyl)amino)-2,4-dihydroxy-6-(1-methyl-1H-pyrazol-3-yl)pyridin-3-yl)methanone]

same assay, conditions: hAPJ cAMP EC50 Potency range, HEK293 cells stably expressing human APJ receptor; inhibition of forskolin-mediated cAMP production; Table 1

Row | Compound | EC50 [nM]
12 | CCCCc1nc(O)c(C(=O)N2CC[C@H](c3ccccc3)C2)c(O)c1N(CC)c1ccccc1 [Example 066, (R)-(6-butyl-5-(ethyl(phenyl)amino)-2,4-dihydroxypyridin-3-yl)(3-phenylpyrrolidin-1-yl)methanone] | 10 to 100
